US10604524B2, “Pyrropyrimidine compounds as MNKs inhibitors” (LIFEARC, priority 2015, dated 2020)

What was measured:
Assay in all cases: Kinase selectivity screen
MKNK2 = MKNK2 (Homo sapiens, UniProt Q9HBH9); format: biochemical; conditions: 1 μM compound
RPS6KA1 = RPS6KA1 (Homo sapiens, UniProt Q15418); conditions: read-out: % Inhibition RPS6KA1
CSNK1G1 = CSNK1G1 (Homo sapiens, UniProt Q9HCP0); conditions: read-out: % Inhibition CSNK1G1
NUAK1 = NUAK1 (Homo sapiens, UniProt O60285); conditions: read-out: % Inhibition NUAK1
KDR = KDR (Homo sapiens, UniProt P35968); conditions: read-out: % Inhibition KDR
PIK3CB = PIK3CB (Homo sapiens, UniProt P42338); conditions: read-out: % Inhibition PIK3CB
AKT2 = AKT2 (Homo sapiens, UniProt P31751); conditions: read-out: % Inhibition AKT2
DMPK = DMPK (Homo sapiens, UniProt Q09013); conditions: read-out: % Inhibition DMPK
PRKCA = PRKCA (Homo sapiens, UniProt P17252); conditions: read-out: % Inhibition PRKCA
CAMK2B = CAMK2B (Homo sapiens, UniProt Q13554); conditions: read-out: % Inhibition CAMK2B
JAK2 = JAK2 (Homo sapiens, UniProt O60674); conditions: read-out: % Inhibition JAK2
RPS6KB1 = RPS6KB1 (Homo sapiens, UniProt P23443); conditions: read-out: % Inhibition RPS6KB1
MYLK = MYLK (Homo sapiens, UniProt Q15746); conditions: read-out: % Inhibition MYLK
FYN = FYN (Homo sapiens, UniProt P06241); conditions: read-out: % Inhibition FYN
CDK9/CCNT1 = CDK9/CCNT1 (Homo sapiens, UniProt P50750); conditions: read-out: % Inhibition CDK9/CCNT1
CaMK1 = CaMK1 (Homo sapiens, UniProt Q14012); conditions: read-out: % Inhibition CaMK1
ERBB4 = ERBB4 (Homo sapiens, UniProt Q15303); conditions: read-out: % Inhibition ERBB4
MET = MET (Homo sapiens, UniProt P08581); conditions: read-out: % Inhibition MET
PLK1 = PLK1 (Homo sapiens, UniProt P53350); conditions: read-out: % Inhibition PLK1
ROCK2 = ROCK2 (Homo sapiens, UniProt O75116); conditions: read-out: % Inhibition ROCK2
MAP2K7 = MAP2K7 (Homo sapiens, UniProt O14733); conditions: read-out: % Inhibition MAP2K7
JAK3 = JAK3 (Homo sapiens, UniProt P52333); conditions: read-out: % Inhibition JAK3
MAP2K1 = MAP2K1 (Homo sapiens, UniProt Q02750); conditions: read-out: % Inhibition MAP2K1
ACVR1B = ACVR1B (Homo sapiens, UniProt P36896); conditions: read-out: % Inhibition ACVR1B
PIP4K2A = PIP4K2A (Homo sapiens, UniProt P48426); conditions: read-out: % Inhibition PIP4K2A
PIK3CG = PIK3CG (Homo sapiens, UniProt P48736); conditions: read-out: % Inhibition PIK3CG
BMX = BMX (Homo sapiens, UniProt P51813); conditions: read-out: % Inhibition BMX
STK4 = STK4 (Homo sapiens, UniProt Q13043); conditions: read-out: % Inhibition STK4
PIP5K1C = PIP5K1C (Homo sapiens, UniProt O60331); conditions: read-out: % Inhibition PIP5K1C
FGFR3 = FGFR3 (Homo sapiens, UniProt P22607); conditions: read-out: % Inhibition FGFR3
CDK6/CCND3 = CDK6/CCND3 (Homo sapiens, UniProt Q00534); conditions: read-out: % Inhibition CDK6/CCND3
FLT3 = FLT3 (Homo sapiens, UniProt P36888); conditions: read-out: % Inhibition FLT3
TGFBR1 = TGFBR1 (Homo sapiens, UniProt P36897); conditions: read-out: % Inhibition TGFBR1
AXL = AXL (Homo sapiens, UniProt P30530); conditions: read-out: % Inhibition AXL

Chain of MAP2K1 (Q02750 whole entry, species assumed): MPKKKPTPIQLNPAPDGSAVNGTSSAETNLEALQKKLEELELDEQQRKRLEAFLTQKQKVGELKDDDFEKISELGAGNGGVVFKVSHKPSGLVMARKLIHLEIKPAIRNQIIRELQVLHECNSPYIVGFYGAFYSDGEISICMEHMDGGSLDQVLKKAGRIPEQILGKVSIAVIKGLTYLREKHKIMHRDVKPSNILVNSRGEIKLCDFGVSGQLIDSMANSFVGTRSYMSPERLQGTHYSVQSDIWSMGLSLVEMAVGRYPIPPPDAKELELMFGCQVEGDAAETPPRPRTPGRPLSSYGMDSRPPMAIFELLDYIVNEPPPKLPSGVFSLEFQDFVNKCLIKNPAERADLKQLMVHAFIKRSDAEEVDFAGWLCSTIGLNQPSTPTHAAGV
Chain of BMX (P51813 whole entry, species assumed): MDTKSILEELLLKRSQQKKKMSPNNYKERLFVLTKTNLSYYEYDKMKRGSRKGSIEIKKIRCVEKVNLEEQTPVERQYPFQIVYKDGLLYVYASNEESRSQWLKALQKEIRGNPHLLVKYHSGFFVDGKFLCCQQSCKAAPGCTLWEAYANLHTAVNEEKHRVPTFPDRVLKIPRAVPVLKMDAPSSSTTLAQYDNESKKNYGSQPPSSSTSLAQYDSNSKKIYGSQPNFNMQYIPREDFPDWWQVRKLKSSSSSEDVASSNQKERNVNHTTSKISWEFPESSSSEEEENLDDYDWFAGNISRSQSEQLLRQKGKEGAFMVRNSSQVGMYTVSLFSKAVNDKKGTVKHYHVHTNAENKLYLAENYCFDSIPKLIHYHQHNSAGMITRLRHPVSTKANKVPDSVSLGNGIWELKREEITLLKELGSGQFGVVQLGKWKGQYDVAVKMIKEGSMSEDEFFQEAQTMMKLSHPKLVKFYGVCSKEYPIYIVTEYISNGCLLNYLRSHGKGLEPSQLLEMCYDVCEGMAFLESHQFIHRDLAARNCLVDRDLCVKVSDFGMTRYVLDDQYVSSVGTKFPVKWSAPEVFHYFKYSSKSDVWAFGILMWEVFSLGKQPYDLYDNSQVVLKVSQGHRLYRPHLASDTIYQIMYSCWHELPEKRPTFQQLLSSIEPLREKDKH
Chain of ROCK2 (O75116 whole entry, species assumed): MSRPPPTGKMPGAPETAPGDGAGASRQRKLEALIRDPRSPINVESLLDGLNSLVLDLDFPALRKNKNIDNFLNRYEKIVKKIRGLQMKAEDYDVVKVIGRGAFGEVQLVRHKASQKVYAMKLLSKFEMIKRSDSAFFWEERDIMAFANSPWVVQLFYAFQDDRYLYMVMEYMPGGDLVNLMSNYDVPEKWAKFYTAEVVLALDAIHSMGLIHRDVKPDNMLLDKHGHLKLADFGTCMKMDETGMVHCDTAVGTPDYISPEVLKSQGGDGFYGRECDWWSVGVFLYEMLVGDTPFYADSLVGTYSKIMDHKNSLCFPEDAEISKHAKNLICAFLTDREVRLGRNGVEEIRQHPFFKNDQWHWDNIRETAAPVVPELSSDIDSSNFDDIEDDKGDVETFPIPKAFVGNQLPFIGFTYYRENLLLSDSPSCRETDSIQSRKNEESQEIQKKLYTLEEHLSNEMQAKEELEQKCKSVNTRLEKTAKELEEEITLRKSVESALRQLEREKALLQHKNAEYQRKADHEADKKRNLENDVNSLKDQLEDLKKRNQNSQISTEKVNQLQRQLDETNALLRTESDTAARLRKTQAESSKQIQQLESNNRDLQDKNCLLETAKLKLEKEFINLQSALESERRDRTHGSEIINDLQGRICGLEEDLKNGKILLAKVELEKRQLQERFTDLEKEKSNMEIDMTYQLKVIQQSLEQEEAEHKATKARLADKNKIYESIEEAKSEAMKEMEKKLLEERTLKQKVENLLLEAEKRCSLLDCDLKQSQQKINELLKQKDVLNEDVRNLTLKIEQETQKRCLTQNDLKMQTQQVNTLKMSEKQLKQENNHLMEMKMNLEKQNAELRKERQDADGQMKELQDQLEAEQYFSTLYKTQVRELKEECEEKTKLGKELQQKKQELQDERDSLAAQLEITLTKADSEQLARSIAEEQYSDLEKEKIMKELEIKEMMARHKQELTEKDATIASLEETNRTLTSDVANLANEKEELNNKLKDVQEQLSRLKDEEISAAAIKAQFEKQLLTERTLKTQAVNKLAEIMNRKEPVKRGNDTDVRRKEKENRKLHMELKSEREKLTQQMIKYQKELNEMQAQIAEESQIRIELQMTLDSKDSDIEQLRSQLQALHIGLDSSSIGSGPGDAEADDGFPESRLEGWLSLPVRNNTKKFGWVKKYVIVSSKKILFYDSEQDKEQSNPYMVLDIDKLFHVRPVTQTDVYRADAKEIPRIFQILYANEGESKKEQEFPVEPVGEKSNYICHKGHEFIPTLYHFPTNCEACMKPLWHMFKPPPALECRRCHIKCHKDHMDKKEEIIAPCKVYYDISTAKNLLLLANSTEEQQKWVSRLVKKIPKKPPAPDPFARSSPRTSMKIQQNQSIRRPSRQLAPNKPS
Chain of ERBB4 (Q15303 26-1308, species assumed): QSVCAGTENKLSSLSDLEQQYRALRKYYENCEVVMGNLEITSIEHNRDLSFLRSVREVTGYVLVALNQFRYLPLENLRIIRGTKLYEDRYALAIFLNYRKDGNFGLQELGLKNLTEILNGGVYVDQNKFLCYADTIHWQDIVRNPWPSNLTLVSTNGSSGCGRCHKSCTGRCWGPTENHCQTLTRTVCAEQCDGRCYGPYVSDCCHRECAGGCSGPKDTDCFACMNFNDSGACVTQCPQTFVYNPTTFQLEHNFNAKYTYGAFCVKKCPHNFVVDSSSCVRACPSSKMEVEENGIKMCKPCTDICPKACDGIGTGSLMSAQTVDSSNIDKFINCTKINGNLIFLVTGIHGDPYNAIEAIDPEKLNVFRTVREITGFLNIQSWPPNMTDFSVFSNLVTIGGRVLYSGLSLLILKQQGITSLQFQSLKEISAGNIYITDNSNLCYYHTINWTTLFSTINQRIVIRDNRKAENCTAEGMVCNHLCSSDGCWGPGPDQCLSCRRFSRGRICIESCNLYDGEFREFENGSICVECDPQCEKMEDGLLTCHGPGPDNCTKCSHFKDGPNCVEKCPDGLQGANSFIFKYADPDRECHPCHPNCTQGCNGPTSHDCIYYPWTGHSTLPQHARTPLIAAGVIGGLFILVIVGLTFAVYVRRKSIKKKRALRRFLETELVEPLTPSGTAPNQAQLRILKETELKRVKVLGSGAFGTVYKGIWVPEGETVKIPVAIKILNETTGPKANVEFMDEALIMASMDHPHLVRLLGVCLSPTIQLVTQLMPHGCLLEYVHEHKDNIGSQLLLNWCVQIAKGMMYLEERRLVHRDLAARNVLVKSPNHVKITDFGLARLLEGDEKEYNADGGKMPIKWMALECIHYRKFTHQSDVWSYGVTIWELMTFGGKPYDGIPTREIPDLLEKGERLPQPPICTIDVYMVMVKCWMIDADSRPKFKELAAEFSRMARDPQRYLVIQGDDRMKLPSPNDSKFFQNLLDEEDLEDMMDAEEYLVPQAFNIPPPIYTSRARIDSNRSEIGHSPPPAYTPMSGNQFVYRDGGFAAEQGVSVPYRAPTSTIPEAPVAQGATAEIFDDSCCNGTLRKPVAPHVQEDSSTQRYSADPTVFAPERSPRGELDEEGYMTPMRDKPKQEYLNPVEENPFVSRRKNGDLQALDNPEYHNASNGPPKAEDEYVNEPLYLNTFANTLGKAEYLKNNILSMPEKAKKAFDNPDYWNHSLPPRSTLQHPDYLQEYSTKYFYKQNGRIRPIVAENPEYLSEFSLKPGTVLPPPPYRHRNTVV
Chain of AKT2 (P31751 whole entry, species assumed): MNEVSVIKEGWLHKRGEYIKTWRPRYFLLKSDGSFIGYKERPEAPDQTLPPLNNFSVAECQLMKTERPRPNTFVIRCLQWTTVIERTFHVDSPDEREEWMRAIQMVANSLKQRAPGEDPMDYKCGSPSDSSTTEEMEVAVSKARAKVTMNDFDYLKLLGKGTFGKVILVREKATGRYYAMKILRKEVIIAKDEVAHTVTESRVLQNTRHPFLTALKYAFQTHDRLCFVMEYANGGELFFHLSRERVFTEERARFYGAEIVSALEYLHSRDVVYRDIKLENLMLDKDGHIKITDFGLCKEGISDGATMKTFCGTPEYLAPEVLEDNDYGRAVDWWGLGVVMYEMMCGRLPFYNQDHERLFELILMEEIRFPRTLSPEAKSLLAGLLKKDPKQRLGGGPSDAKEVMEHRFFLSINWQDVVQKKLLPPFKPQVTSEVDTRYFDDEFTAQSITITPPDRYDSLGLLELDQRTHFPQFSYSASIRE
Chain of NUAK1 (O60285 whole entry, species assumed): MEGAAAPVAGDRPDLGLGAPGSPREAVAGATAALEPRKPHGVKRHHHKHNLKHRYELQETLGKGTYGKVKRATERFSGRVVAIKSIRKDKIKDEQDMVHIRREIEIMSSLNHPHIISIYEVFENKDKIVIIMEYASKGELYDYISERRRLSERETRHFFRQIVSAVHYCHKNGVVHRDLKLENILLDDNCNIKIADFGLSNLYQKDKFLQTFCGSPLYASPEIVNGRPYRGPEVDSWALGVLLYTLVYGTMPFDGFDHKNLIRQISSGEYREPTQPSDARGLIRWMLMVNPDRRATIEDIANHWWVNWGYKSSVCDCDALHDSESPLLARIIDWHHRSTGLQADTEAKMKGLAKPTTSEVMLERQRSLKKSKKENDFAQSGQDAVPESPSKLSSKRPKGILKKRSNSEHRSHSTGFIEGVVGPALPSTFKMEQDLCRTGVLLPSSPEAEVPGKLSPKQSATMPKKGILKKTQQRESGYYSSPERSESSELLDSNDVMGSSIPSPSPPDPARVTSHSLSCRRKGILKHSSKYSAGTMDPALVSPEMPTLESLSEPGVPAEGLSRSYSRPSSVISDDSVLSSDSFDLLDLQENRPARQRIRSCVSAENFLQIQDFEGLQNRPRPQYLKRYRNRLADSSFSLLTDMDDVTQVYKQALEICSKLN

`CC(C)Oc1cc(F)ccc1Nc1ncnc2cc(C(=O)NCCCN(C)C)n(C)c12` [Example 40, N-[3-(dimethylamino)propyl]-4-{[4-fluoro-2-(propan-2-yloxy)phenyl]amino}-5-methyl-5H-pyrrolo[3,2-d]pyrimidine-6-carboxamide] showed an inhibition at 1 µM (MKNK2) of 84%, an inhibition at 1 µM (RPS6KA1) of 0% and an inhibition at 1 µM (CSNK1G1) of 0%. It also gave an inhibition at 1 µM (NUAK1) of 0%, an inhibition at 1 µM (KDR) of 5% and an inhibition at 1 µM (PIK3CB) of 1%. The inhibition at 1 µM (AKT2) was 0%, the inhibition at 1 µM (DMPK) was 0% and the inhibition at 1 µM (PRKCA) was 5%. The inhibition at 1 µM (CAMK2B) was 14%, the inhibition at 1 µM (JAK2) was 0% and the inhibition at 1 µM (RPS6KB1) was 0%. It also gave an inhibition at 1 µM (MYLK) of 0%, an inhibition at 1 µM (FYN) of 0% and an inhibition at 1 µM (CDK9/CCNT1) of 0%. The inhibition at 1 µM (CaMK1) was 0%, the inhibition at 1 µM (ERBB4) was 0% and the inhibition at 1 µM (MET) was 13%. It also gave an inhibition at 1 µM (PLK1) of 0%, an inhibition at 1 µM (ROCK2) of 0% and an inhibition at 1 µM (MAP2K7) of 0%. It also gave an inhibition at 1 µM (JAK3) of 0%, an inhibition at 1 µM (MAP2K1) of 0% and an inhibition at 1 µM (ACVR1B) of 0%. It also gave an inhibition at 1 µM (PIP4K2A) of 7%, an inhibition at 1 µM (PIK3CG) of 1% and an inhibition at 1 µM (BMX) of 0%. It also gave an inhibition at 1 µM (STK4) of 0%, an inhibition at 1 µM (PIP5K1C) of 6% and an inhibition at 1 µM (FGFR3) of 10%. For the same molecule, the inhibition at 1 µM (CDK6/CCND3) was 0%, the inhibition at 1 µM (FLT3) was 24% and the inhibition at 1 µM (TGFBR1) was 0%. It also gave an inhibition at 1 µM (AXL) of 0%.
